Experimental data from ChEMBL document CHEMBL1142609, “An apigenin-derived xanthine oxidase inhibitor from Palhinhaea cernua” (J Nat Prod, 2006).

How the values were obtained:
[1] = target: T1, Xanthine dehydrogenase/oxidase (Homo sapiens, UniProt P47989); assay: Inhibition of xanthine oxidase
[2] = target: T1, Xanthine dehydrogenase/oxidase; assay: Inhibition of xanthine oxidase by noncompetitive Lineweaver-Burke plot; details: read-out: Kinact
[3] = target: T1, Xanthine dehydrogenase/oxidase; assay: Inhibition of xanthine oxidase by competitive Lineweaver-Burke plot

T1 sequence (P47989 whole entry): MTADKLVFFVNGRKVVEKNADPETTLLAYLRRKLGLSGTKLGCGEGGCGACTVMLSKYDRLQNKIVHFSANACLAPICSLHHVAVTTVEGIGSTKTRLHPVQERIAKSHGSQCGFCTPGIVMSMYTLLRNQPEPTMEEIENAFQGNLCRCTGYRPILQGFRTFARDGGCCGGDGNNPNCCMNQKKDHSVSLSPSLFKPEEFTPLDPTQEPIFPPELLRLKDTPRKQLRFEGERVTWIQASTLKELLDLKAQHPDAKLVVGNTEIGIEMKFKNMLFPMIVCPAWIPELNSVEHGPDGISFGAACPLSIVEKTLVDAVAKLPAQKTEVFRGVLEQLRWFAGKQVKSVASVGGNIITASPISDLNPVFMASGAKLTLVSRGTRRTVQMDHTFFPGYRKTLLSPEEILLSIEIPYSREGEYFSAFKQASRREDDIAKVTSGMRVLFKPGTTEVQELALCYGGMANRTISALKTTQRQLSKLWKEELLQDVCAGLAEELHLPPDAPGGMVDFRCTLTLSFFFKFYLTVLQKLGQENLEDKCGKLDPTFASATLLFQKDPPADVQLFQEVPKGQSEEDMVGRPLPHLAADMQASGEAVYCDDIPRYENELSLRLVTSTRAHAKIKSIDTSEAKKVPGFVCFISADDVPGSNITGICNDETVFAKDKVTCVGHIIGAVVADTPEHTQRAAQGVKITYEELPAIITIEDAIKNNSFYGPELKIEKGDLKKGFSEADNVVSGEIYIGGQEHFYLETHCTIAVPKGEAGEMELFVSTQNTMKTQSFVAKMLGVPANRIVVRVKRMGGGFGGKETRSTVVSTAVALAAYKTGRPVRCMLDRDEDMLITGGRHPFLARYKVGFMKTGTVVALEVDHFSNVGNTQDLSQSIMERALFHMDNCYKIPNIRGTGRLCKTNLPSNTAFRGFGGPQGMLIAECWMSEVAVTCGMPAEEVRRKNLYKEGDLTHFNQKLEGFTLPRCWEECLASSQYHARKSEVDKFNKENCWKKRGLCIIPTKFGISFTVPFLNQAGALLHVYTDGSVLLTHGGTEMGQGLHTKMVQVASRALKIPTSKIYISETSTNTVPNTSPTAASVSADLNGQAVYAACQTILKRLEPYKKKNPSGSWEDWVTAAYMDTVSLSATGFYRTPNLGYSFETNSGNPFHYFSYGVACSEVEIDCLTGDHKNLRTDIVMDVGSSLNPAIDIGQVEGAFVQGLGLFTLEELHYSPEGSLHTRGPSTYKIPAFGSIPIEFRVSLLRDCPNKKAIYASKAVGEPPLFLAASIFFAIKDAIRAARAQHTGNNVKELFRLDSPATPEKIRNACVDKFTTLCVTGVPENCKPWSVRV

Compound | IC50 [1] | Ki [2] | Ki [3]
O=C(/C=C/c1ccc(O)cc1)OC[C@@H]1O[C@H](Oc2ccc(-c3cc(=O)c4c(O)cc(O)cc4o3)cc2)[C@@H](O)[C@H](O)[C@H]1O | > 100 µM |  | 
O=C(/C=C/c1ccc(O)cc1)O[C@@H]1[C@@H](Oc2ccc(-c3cc(=O)c4c(O)cc(O)cc4o3)cc2)O[C@@H](CO)[C@H](O)[C@H]1O | 24 µM | 93.7 µM | 14.3 µM
O=C(/C=C/c1ccc(O)cc1)OC[C@@H]1O[C@H](Oc2ccc(-c3cc(=O)c4c(O)cc(O)cc4o3)cc2)[C@@H](OC(=O)/C=C/c2ccc(O)cc2)[C@H](O)[C@H]1O | > 100 µM |  | 
